Source: patent US8933230B2, “Phosphorus-containing group-substituted quinoline, its preparation process, medical composition containing the compounds and application” (priority 2011, dated 2015)

Columns and labels:
Test in all cases: KinomeScan kinase panel
Type in all cases: binding
CSNK1A1L = target: T1, CSNK1A1L (Homo sapiens, UniProt Q8N752)
T1 construct: purchased DiscoveRx Corporation (KinomeScan)
How it was run: (§1)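 KinomeScan, 442 kinases incl. mutants; cpd 1000 nM; single-concentration inhibition.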

NEK6 = target: T2, NEK6 (Homo sapiens, UniProt Q9HC98)
T2 construct: purchased DiscoveRx Corporation (KinomeScan panel)
How it was run: as §1

ACVR1B = target: T3, ACVR1B (Homo sapiens, UniProt P36896)
T3 construct: purchased DiscoveRx Corporation (KinomeScan)
How it was run: as §1

FLT3(N841L) = test system: FLT3(N841L)
How it was run: as §1

[1] = target: T4, JAK2(JH1domain-catalytic) (Homo sapiens, UniProt O60674)
T4 construct: JAK2(JH1domain-catalytic); purchased DiscoveRx Corporation (KinomeScan)
How it was run: as §1

MAST1 = target: T5, MAST1 (Homo sapiens, UniProt Q9Y2H9)
T5 construct: purchased DiscoveRx Corporation (KinomeScan)
How it was run: as §1

PRKD3 = target: T6, PRKD3 (Homo sapiens, UniProt O94806)
T6 construct: purchased DiscoveRx Corporation (KinomeScan)
How it was run: as §1

EPHB6 = target: T7, EPHB6 (Homo sapiens, UniProt O15197)
T7 construct: purchased DiscoveRx Corporation (KinomeScan)
How it was run: as §1

ITK = target: T8, ITK (Homo sapiens, UniProt Q08881)
T8 construct: purchased DiscoveRx Corporation (KinomeScan)
How it was run: as §1

EGFR(L747-T751del,Sins) = target: T9, EGFR(L747-T751del,Sins) (Homo sapiens, UniProt P00533, DEL747-750/T751S)
T9 construct: purchased DiscoveRx Corporation (KinomeScan)
How it was run: as §1

TGFBR1 = target: T10, TGFBR1 (Homo sapiens, UniProt P36897)
T10 construct: purchased DiscoveRx Corporation (KinomeScan)
How it was run: as §1

ERK4 = target: T11, ERK4 (Homo sapiens, UniProt P31152)
T11 construct: purchased DiscoveRx Corporation (KinomeScan)
How it was run: as §1

DLK = target: T12, DLK (Homo sapiens, UniProt Q12852)
T12 construct: purchased DiscoveRx Corporation (KinomeScan)
How it was run: as §1

TRAK = target: T13, TRAK (Homo sapiens, UniProt P04629)
T13 construct: purchased DiscoveRx Corporation (KinomeScan)
How it was run: as §1

TIE2 = target: T14, TIE2 (Homo sapiens, UniProt Q02763)
T14 construct: purchased DiscoveRx Corporation (KinomeScan)
How it was run: as §1

[2] = target: T15, ABL1(F317L)-phosphorylated (Homo sapiens, UniProt P00519, F317L)
T15 construct: purchased DiscoveRx Corporation (KinomeScan)
How it was run: as §1

TNNI3K = target: T16, TNNI3K (Homo sapiens, UniProt Q59H18)
T16 construct: purchased DiscoveRx Corporation (KinomeScan)
How it was run: as §1

NEK11 = target: T17, NEK11 (Homo sapiens, UniProt Q8NG66)
T17 construct: purchased DiscoveRx Corporation (KinomeScan)
How it was run: as §1

WEE2 = target: T18, WEE2 (Homo sapiens, UniProt P0C1S8)
T18 construct: purchased DiscoveRx Corporation (KinomeScan service)
How it was run: as §1

MTOR = target: T19, MTOR (Homo sapiens, UniProt P42345)
T19 construct: purchased DiscoveRx Corporation (KinomeScan)
How it was run: as §1

[3] = target: T20, RSK3(Kin.Dom.1-N-terminal) (Homo sapiens, UniProt Q15349)
T20 construct: Kin.Dom.1; purchased DiscoveRx Corporation (KinomeScan)
How it was run: as §1

PRKG2 = target: T21, PRKG2 (Homo sapiens, UniProt Q13237)
T21 construct: purchased DiscoveRx Corporation (KinomeScan)
How it was run: as §1

LIMK2 = target: T22, LIMK2 (Homo sapiens, UniProt P53671)
T22 construct: purchased DiscoveRx Corporation (KinomeScan)
How it was run: as §1

EPHA6 = target: T23, EPHA6 (Homo sapiens, UniProt Q9UF33)
T23 construct: purchased DiscoveRx Corporation (KinomeScan)
How it was run: as §1

FGR = target: T24, FGR (Homo sapiens, UniProt P09769)
T24 construct: purchased DiscoveRx Corporation (KinomeScan)
How it was run: as §1

CHEK1 = target: T25, CHEK1 (Homo sapiens, UniProt O14757)
T25 construct: purchased DiscoveRx Corporation (KinomeScan)
How it was run: as §1

CDK4-cyclinD3 = target: T26, CDK4-cyclinD3 (Homo sapiens, UniProt P11802)
T26 construct: purchased DiscoveRx Corporation (KinomeScan)
How it was run: as §1

[4] = target: T27, ABL1(F317I)-phosphorylated (Homo sapiens, UniProt P00519, F317I)
T27 construct: purchased DiscoveRx Corporation (KinomeScan)
How it was run: as §1

NEK1 = target: T28, NEK1 (Homo sapiens, UniProt Q96PY6)
T28 construct: purchased DiscoveRx Corporation (KinomeScan)
How it was run: as §1

EPHA4 = target: T29, EPHA4 (Homo sapiens, UniProt P54764)
T29 construct: purchased DiscoveRx Corporation (KinomeScan)
How it was run: as §1

BRAF = target: T30, BRAF (Homo sapiens, UniProt P15056)
T30 construct: purchased DiscoveRx Corporation (KinomeScan)
How it was run: as §1

MLK3 = target: T31, MLK3 (Homo sapiens, UniProt Q16584)
T31 construct: purchased DiscoveRx Corporation (KinomeScan)
How it was run: as §1

LRRK2(G2019S) = target: T32, LRRK2(G2019S) (Homo sapiens, UniProt Q5S007, G2019S)
T32 construct: purchased DiscoveRx Corporation (KinomeScan)
How it was run: as §1

EPHA2 = target: T33, EPHA2 (Homo sapiens, UniProt P29317)
T33 construct: purchased DiscoveRx Corporation (KinomeScan)
How it was run: as §1

YANK3 = target: T34, YANK3 (Homo sapiens, UniProt Q86UX6)
T34 construct: purchased DiscoveRx Corporation (KinomeScan service)
How it was run: as §1

T31 sequence (Q16584 whole entry): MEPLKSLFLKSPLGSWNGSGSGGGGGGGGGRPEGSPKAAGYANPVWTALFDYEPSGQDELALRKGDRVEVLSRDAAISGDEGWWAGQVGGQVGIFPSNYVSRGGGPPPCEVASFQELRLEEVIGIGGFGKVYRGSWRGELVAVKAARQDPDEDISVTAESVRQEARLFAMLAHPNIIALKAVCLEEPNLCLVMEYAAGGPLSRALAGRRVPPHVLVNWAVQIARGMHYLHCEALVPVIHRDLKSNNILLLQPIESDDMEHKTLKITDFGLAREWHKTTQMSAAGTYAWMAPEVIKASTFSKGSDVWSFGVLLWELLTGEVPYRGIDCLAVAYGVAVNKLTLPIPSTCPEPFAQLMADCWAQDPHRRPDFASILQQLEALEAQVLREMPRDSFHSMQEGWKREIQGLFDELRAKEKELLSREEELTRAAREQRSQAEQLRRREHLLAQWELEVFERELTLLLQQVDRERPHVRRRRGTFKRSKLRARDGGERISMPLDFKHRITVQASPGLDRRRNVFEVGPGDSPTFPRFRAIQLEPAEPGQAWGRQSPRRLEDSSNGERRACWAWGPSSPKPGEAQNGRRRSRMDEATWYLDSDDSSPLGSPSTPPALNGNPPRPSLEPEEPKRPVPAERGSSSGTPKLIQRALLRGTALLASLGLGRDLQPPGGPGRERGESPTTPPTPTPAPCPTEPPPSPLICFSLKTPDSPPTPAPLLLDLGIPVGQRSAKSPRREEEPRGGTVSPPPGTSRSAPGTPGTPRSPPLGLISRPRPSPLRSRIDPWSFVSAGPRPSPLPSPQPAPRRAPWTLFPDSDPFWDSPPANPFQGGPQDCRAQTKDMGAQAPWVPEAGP
T20 sequence (Q15349 59-318 limits assumed): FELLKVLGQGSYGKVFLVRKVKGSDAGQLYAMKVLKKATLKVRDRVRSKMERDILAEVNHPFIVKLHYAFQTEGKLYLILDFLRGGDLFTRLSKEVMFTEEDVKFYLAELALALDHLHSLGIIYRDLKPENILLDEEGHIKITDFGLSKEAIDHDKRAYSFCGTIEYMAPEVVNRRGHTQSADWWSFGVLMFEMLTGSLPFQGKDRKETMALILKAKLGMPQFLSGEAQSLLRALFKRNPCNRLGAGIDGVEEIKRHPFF
T4 sequence (O60674 849-1124 limits assumed): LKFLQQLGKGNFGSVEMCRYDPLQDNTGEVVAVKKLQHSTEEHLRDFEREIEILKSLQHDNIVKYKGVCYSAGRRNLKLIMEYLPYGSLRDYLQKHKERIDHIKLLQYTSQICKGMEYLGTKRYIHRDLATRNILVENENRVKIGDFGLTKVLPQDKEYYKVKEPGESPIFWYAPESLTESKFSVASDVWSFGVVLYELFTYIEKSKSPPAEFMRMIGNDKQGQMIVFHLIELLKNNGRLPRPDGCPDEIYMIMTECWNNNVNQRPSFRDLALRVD
T24 sequence (P09769 whole entry): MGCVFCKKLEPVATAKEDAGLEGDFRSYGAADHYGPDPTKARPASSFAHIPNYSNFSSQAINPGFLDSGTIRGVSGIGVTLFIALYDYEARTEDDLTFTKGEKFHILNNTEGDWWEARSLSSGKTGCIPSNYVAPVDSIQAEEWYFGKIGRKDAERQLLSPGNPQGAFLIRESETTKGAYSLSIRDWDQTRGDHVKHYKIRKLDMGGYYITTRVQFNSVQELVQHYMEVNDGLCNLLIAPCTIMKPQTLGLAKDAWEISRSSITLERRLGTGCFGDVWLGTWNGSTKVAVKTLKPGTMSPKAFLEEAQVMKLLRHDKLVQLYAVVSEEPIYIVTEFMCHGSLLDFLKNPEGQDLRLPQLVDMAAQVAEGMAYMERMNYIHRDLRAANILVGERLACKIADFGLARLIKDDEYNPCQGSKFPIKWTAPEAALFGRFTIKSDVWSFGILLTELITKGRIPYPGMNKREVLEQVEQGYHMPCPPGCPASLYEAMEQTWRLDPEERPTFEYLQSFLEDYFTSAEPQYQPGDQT
T16 sequence (Q59H18 whole entry): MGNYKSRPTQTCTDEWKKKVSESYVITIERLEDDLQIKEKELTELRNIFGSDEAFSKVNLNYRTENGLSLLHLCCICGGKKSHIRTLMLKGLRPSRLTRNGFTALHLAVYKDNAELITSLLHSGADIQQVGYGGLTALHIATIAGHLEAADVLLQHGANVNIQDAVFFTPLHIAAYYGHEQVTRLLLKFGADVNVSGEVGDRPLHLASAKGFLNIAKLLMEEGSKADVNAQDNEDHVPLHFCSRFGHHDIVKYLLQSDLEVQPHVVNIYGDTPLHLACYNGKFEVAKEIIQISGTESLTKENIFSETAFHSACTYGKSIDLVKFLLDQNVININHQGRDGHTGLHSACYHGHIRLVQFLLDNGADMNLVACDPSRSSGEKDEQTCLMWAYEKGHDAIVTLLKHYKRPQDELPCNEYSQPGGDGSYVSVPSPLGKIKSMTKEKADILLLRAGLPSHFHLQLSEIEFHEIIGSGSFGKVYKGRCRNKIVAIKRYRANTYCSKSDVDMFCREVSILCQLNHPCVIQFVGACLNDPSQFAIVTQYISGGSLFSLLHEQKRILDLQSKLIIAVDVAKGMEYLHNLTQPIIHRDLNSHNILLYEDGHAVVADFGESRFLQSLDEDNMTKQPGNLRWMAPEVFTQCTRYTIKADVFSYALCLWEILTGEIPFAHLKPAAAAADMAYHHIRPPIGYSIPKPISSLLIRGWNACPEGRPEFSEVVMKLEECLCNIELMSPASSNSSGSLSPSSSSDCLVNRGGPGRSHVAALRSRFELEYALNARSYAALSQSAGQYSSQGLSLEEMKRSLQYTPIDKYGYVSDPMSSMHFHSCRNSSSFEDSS
T10 sequence (P36897 34-503): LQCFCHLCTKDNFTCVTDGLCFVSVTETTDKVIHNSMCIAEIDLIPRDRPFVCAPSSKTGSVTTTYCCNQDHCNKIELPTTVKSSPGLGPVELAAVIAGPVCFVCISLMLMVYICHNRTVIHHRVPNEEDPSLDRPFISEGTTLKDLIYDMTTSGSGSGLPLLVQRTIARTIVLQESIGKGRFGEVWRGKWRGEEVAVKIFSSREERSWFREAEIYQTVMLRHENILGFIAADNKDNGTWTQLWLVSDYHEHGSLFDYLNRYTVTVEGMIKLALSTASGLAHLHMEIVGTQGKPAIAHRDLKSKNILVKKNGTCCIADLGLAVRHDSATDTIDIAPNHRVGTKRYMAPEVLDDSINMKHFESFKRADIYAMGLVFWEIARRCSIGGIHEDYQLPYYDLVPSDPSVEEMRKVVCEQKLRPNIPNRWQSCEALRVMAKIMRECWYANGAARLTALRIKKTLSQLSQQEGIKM
T25 sequence (O14757 whole entry): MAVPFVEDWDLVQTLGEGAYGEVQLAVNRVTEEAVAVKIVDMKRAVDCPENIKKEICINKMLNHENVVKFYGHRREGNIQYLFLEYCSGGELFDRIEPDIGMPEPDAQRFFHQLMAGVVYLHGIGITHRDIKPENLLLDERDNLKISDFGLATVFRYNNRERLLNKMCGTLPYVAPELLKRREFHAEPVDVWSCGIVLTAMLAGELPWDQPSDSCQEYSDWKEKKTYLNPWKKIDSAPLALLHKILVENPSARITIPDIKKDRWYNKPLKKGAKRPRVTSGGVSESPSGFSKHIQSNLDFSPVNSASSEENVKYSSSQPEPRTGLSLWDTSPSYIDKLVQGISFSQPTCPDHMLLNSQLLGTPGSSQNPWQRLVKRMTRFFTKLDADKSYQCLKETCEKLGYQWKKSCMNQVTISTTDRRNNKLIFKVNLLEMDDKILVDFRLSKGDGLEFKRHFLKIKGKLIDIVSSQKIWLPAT
T17 sequence (Q8NG66 whole entry): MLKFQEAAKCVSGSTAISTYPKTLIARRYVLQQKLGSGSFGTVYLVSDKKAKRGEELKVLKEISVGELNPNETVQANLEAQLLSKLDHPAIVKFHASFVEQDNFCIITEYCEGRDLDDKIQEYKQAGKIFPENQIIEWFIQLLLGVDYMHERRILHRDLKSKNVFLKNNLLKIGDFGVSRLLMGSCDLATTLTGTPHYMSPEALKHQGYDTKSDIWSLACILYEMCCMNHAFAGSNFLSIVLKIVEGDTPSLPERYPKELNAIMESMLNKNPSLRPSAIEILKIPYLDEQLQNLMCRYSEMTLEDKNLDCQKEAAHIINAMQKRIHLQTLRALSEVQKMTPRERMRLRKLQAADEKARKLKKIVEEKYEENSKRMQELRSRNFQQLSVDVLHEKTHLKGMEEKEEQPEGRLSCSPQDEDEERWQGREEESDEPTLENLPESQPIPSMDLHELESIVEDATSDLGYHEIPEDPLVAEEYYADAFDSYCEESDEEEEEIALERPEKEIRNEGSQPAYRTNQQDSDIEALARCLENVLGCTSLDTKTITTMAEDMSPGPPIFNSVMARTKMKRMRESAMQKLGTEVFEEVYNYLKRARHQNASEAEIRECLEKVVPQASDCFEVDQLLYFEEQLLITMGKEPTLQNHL
T11 sequence (P31152 whole entry): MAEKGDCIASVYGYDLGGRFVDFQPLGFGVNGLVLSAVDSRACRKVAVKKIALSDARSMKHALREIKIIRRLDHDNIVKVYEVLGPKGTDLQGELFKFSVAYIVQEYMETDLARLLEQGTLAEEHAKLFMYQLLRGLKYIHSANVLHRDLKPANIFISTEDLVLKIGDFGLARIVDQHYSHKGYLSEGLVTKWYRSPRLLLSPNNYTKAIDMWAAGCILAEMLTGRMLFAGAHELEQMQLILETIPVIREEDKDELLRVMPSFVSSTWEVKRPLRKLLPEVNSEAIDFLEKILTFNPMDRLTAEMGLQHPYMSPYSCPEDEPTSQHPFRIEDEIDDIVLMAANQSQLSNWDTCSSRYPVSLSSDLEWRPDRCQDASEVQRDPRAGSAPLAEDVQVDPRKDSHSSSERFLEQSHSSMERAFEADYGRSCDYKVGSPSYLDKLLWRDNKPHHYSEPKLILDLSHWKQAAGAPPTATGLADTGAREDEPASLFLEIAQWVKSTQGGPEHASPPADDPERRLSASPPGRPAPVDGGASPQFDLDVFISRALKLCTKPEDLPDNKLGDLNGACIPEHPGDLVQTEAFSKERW

CCOP(=O)(CN1CCC(COc2cc3nccc(Oc4ccc(NC(=O)C5(C(=O)Nc6ccc(F)cc6)CC5)cc4F)c3cc2OC)CC1)OCC [Example 10, N1-[4-[[7-[[1-(diethoxyphosphorylmethyl)-4-piperidinyl]methoxyl]-6-methoxyl-4-quinolyl]oxyl]-3-fluorophenyl]-N1′-(4-fluorophenyl)cyclopropane-1,1-dicarboxamide]
% Ctrl@1000 nM (CSNK1A1L): 100 % Ctrl | % Ctrl@1000 nM (NEK6): 100 % Ctrl | % Ctrl@1000 nM (ACVR1B): 100 % Ctrl | % Ctrl@1000 nM (FLT3(N841L)): 0 % Ctrl | % Ctrl@1000 nM [1]: 100 % Ctrl | % Ctrl@1000 nM (MAST1): 100 % Ctrl | % Ctrl@1000 nM (PRKD3): 88 % Ctrl | % Ctrl@1000 nM (EPHB6): 0.9 % Ctrl | % Ctrl@1000 nM (ITK): 34 % Ctrl | % Ctrl@1000 nM (EGFR(L747-T751del,Sins)): 72 % Ctrl | % Ctrl@1000 nM (TGFBR1): 100 % Ctrl | % Ctrl@1000 nM (ERK4): 100 % Ctrl | % Ctrl@1000 nM (DLK): 52 % Ctrl | % Ctrl@1000 nM (TRAK): 1.8 % Ctrl | % Ctrl@1000 nM (TIE2): 2.4 % Ctrl | % Ctrl@1000 nM [2]: 69 % Ctrl | % Ctrl@1000 nM (TNNI3K): 94 % Ctrl | % Ctrl@1000 nM (NEK11): 100 % Ctrl | % Ctrl@1000 nM (WEE2): 100 % Ctrl | % Ctrl@1000 nM (MTOR): 100 % Ctrl | % Ctrl@1000 nM [3]: 100 % Ctrl | % Ctrl@1000 nM (PRKG2): 100 % Ctrl | % Ctrl@1000 nM (LIMK2): 100 % Ctrl | % Ctrl@1000 nM (EPHA6): 4.8 % Ctrl | % Ctrl@1000 nM (FGR): 35 % Ctrl | % Ctrl@1000 nM (CHEK1): 100 % Ctrl | % Ctrl@1000 nM (CDK4-cyclinD3): 100 % Ctrl | % Ctrl@1000 nM [4]: 70 % Ctrl | % Ctrl@1000 nM (NEK1): 100 % Ctrl | % Ctrl@1000 nM (EPHA4): 4 % Ctrl | % Ctrl@1000 nM (BRAF): 100 % Ctrl | % Ctrl@1000 nM (MLK3): 63 % Ctrl | % Ctrl@1000 nM (LRRK2(G2019S)): 100 % Ctrl | % Ctrl@1000 nM (EPHA2): 4.8 % Ctrl | % Ctrl@1000 nM (YANK3): 100 % Ctrl
